Earlier results on four compounds are cited in patent US6869622B2, “Composition for improving sleep quality and efficiency, and methods of preparing and using the composition” (Ancile Pharmaceuticals, Inc., priority 1999, dated 2005).

Data set [1] has as its system enzyme system which catalyses breakdown of GABA in the brain. The following applies: 1 mmole/liter.
For data set [2], the system named is mice. The following applies: 26 mg/kg, IP or PO.
Data set [3] deals with AMES assay and the SOS-chromo-test.
The subject of data set [4] is mice. The following applies: 12.5 and 25 mg/kg, IP in mice.
Data set [5] concerns mice.
The test system of another data set is mouse. The following applies: 50 and 100 mg/kg, IP.

Like-named read-outs stand apart in the source and are kept apart here.

For `CC(=O)O[C@@H]1CC(C)=C2[C@H]1[C@H](C)CC[C@H]2/C=C(\C)C(=O)O` [acetoxyvalerenic acid, Acetoxyvalerenic Acid], the “Inhibition of enzyme system which catalyses breakdown of GABA” value in data set [1] is listed as 38%.

As for `CC(=O)OCc1cocc2c(C=O)ccc1-2` [baldrinal], in the data set on mice [2], the “Metabolic degradation of 14C-methacetin” value is on record as “distinctly inhibited”. Further, in data set [3] (AMES assay and SOS-chromo-test), the Genotoxicity in vitro entry is on record as “direct mutagenic effects”.

Turning to `CC(C)CC(=O)OCc1cocc2c(C=O)ccc1-2` [homobaldrinal], the Genotoxicity in vitro result in data set [3] is on record as “direct mutagenic effects”.

Turning to `CC1=C2[C@H](/C=C(\C)C(=O)O)CC[C@@H](C)[C@H]2CC1` [valerenic acid, Valerenic Acid], in the data set with mice [4], the Picrotoxin induced convulsions result is listed as “antagonized”. The Behavioural effects entry in the data set on mice [5] (100 mg/kg intraperitoneally, mice) was “decrease in motor activity, a decrease in respiratory rate, absence of righting reflex, ataxia, a decrease of abdominal muscle tone, and a decrease in rotarod performance”. For the same compound, in the data set with mice [5] (100 mg/kg, IP), the “Performance on rotarod and traction tests” value is on record as “statistical significance”. Moreover, the “Inhibition of enzyme system which catalyses breakdown of GABA” value in data set [1] is listed as 20%. Moreover, the “Pentobarbital induced sleeping time” value in the data set on mouse is “potentiate”.
